Data published in patent US9505734B2, “Phenyl C-glucoside derivative containing deoxyglucose structure, preparation method and use thereof” (Tianjin Institute of Pharmaceutical Research, priority 2012, dated 2016).
“Also recorded” adds a separate entry of the source. One block for each compound: values may come before it.

Legend:
[1] = influencing factors test: higher humidity stability; assay type: physicochemical
Excerpt: (§1) The appearance, number of impurity and the amount of impurity (measured by HPLC) are compared with that of day 0.

[2] = influencing factors test: light stability; assay type: physicochemical; details: for Appearance / Number of impurity / Total amount of impurity (%): listed as I-D1-6 raw materials; for storage stability (in words): two-week stability test under light, higher temperature, higher humidity
Excerpt: as §1

hSGLT1 = hSGLT1 (Homo sapiens (Human), UniProt P13866); experiment: IC50 of inhibition on SGLT1; assay type: cell-based; details: for IC50: Table 3
[3] = test system: SD rats (type 2 diabetes model); experiment: model for rat urine glucose excretion (glucose-oxidase method); assay type: in vivo
Protocol: The health SD rats are injected intraperitoneally with multiple low doses of streptozotocin for modeling (type 2 diabetes model) after feeding with high-fat and high-sucrose diet, and the content of blood glucose is measured before and after modeling. After the modeling successful, the rats for modeling are randomly divided (8 rats/group) into one blank group (administering the same volume of 0.5% CMC sodium solution) and several groups for compounds to be tested (6 mg/kg) according to the content of 24-hour urine glucose and the body weight. Rats in each group are fasted for 16 hours before experiment. The experimental rats are administered intragastrically with glucose (2 g/kg) at 0.5 h after intragastrical administration with compounds to be tested. The urine is collected at the time-period of 0-12 h after administration, and the urine glucose values are measured at each time-period by glucose-oxidase method.
The inhibiting activity of the cocrystal of I-D1-6 and L-proline on SGLT2 is measured by the model for rat urine glucose excretion.
The health SD rats are injected intraperitoneally with multiple low doses of streptozotocin for modeling (type 2 diabetes model) after feeding with high-fat and high-sucrose diet for one month, and the content of blood glucose is measured before and after modeling. After the modeling successful, the rats for modeling are randomly divided (8 rats/group) into one blank group (administering the same volume of 0.5% CMC sodium solution) and groups of tested compound (6 mg/kg) according to the content of 24-hour urine glucose and the body weight. Rats in each group are fasted for 16 hours before experiment. The experimental rats are administered intragastrically with the glucose (2 g/kg) at 0.5 h after intragastrical administration with the cocrystal of I-D1-6 and L-proline prepared in Example 138. The urine is collected at the time-period of 0-12 h after administration, and the urine glucose values are measured at each time-period by glucose-oxidase method.

[4] = influencing factors test: higher temperature stability; assay type: physicochemical; details: higher temperature (45° C.), listed as I-D1-6 raw materials
Excerpt: as §1

hSGLT2 = hSGLT2 (Homo sapiens (Human), UniProt P31639); experiment: IC50 of inhibition on SGLT2; assay type: cell-based; details: for IC50 / Seletivity IC50 (hSGLT1)/IC50 (hSGLT2): Table 3
Mice = details: mice, 10 mice/group, single intragastric dose 750 mg/kg, within one week;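 also: mice weighing 18–20 g, both sexes in equal proportion within each group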
Protocol: Mice (18-20 g) with equal numbers of male and female are divided into groups (10 mice/group), after normal feeding for 3 days, fasted for 12 hours, and then administered intragastrically with a single dose of 750 mg/kg compound respectively.

[5] = higher humidity, day 0, HPLC, listed as I-D1-6 raw materials
[6] = higher humidity, day 7, HPLC, listed as I-D1-6 raw materials
[7] = higher humidity, day 14, HPLC, listed as I-D1-6 raw materials

Chain of hSGLT2 (P31639 whole entry): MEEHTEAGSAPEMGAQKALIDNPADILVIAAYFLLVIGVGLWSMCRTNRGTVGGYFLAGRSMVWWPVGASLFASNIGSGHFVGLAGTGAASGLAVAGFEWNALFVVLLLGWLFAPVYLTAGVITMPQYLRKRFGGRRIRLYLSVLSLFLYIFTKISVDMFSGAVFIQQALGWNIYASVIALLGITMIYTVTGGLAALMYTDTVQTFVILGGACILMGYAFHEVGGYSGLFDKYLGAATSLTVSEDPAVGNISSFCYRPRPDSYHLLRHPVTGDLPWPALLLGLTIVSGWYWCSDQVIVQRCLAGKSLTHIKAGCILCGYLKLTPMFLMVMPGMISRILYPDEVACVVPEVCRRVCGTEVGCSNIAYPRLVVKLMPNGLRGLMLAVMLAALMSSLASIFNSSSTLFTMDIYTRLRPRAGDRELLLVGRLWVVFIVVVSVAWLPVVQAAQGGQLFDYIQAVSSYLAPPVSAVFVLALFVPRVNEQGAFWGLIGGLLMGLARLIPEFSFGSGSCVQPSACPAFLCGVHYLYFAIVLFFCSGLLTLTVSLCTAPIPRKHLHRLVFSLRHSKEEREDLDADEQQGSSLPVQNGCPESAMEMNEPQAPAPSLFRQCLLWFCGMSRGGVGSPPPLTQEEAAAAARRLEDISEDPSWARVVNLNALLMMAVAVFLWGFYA
Chain of hSGLT1 (P13866 whole entry): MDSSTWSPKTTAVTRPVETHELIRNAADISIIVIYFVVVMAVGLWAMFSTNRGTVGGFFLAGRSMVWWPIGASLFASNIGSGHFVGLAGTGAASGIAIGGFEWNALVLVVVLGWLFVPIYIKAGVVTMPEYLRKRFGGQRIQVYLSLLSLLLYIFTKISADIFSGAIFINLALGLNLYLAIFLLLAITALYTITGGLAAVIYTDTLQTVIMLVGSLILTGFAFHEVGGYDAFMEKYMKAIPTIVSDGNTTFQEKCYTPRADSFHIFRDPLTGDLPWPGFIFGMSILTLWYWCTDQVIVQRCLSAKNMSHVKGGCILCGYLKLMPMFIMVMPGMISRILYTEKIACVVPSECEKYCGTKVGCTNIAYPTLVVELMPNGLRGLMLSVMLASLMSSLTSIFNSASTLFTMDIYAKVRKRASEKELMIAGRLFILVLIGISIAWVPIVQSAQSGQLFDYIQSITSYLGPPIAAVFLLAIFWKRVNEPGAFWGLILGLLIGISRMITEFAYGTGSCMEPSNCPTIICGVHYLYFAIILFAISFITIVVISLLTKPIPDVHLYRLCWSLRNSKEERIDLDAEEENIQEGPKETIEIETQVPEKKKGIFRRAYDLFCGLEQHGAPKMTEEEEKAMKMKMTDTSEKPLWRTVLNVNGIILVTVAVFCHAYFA

Compound: CCOc1ccc(Cc2cc(C3OC(C)C(O)C(O)C3O)ccc2Cl)cc1 [I-D1-6, (1S)-1-[4-chloro-3-(4-ethoxybenzyl)phenyl]-1,6-dideoxy-D-glucose]
- Appearance ([1]; higher humidity (30% relative humidity at 30° C.), day 0, listed as I-D1-6 raw materials): white,
- Number of impurity [1, 5]: 7
- Total amount of impurity (%) [1, 5]: 0.89%
- Appearance ([1]; higher humidity, day 7): white
- Number of impurity [1, 6]: 7
- Total amount of impurity (%) [1, 6]: 0.93%
- Appearance ([1]; higher humidity, day 14): white
- Number of impurity [1, 7]: 8
- Total amount of impurity (%) [1, 7]: 1.08%
- Appearance ([2]; light (natural daylight, about 80000 Lx), day 0): a white,
- Number of impurity ([2]; light, day 0, HPLC): 7
- Total amount of impurity (%) ([2]; light, day 0, HPLC): 0.89%
- Number of impurity ([2]; light, day 7, HPLC): 7
- Total amount of impurity (%) ([2]; light, day 7, HPLC): 0.93%
- Appearance ([2]; light, day 7): a white,
- Number of impurity ([2]; light, day 14, HPLC): 7
- Total amount of impurity (%) ([2]; light, day 14, HPLC): 0.96%
- Appearance ([2]; light, day 14): a white,
- inhibition to SGLT1 (in words) (hSGLT1; in words): much less inhibition to SGLT1
- urine glucose excretion effect (in words) ([3]; comparison in words, rat urine glucose excretion model, 6 mg/kg): stronger urine glucose excretion effect
- Number of impurity ([4]; day 0, HPLC): 7
- Total amount of impurity (%) ([4]; day 0, HPLC): 0.89%
- Appearance ([4]; day 0): white,
- Number of impurity ([4]; day 7, HPLC): 8
- Total amount of impurity (%) ([4]; day 7, HPLC): 0.97%
- Appearance ([4]; day 7): white,
- Number of impurity ([4]; day 14, HPLC): 9
- Total amount of impurity (%) ([4]; day 14, HPLC): 1.13%
- Appearance ([4]; day 14): white,
- inhibition to SGLT2 (in words) (hSGLT2; in words): inhibitory effect on SGLT2 enzyme; also recorded: much stronger inhibition to SGLT2
- selectivity on SGLT1/SGLT2 (in words) (hSGLT2; in words): much better selectivity on SGLT1/SGLT2

Compound: CCOc1ccc(Cc2cc(C3OC(C)C(O)C(O)C3O)ccc2Cl)cc1 [cocrystal of I-D1-6 and L-proline, cocrystal of (1S)-1-[4-chloro-3-(4-ethoxybenzyl)phenyl]-1,6-dideoxy-D-glucose (I-D1-6) and L-proline]
- storage stability (in words) [2]: good storage stability
- storage stability (in words) ([2]; listed as cocrystal): better storage stability
- urine glucose production ([3]; type 2 diabetes model SD rats, 6 mg/kg intragastrically, glucose 2 g/kg at 0.5 h, urine 0-12 h): 912 mg urine glucose/200 g body weight
- Selectivity IC50 (hSGLT1)/IC50 (hSGLT2) (hSGLT2; Table 4, cocrystal prepared in Example 138): 375

Compound: CCOc1ccc(Cc2cc([C@]34OC[C@](C)(O3)[C@@H](O)[C@H](O)[C@H]4O)ccc2Cl)cc1 [drawing 292]
- Behaviors after administration with the compound to be tested (deaths) (Mice): 3 dead

Compound: CCOc1ccc(Cc2cc([C@@]34OC[C@@](CO)(C[C@H](O)[C@H]3O)O4)ccc2Cl)cc1 [drawing 293]
- Behaviors after administration with the compound to be tested (deaths) (Mice): 4 dead

Compound: CCOc1ccc(Cc2cc(C3OC(C)CC(O)C3O)ccc2Cl)cc1 (stereo not drawn) [drawing 294]
- Behaviors after administration with the compound to be tested (deaths) (Mice): 1 dead

Compound: CC1OC(c2ccc(F)c(Cc3cc4ccccc4s3)c2)CC(O)C1O (stereo not drawn) [drawing 295]
- Behaviors after administration with the compound to be tested (deaths) (Mice): 1 dead

Compound: CCc1ccc(Cc2c(Cl)ccc3c2COC32CC(O)CC(CO)O2)cc1 (stereo not drawn) [drawing 296]
- Behaviors after administration with the compound to be tested (deaths) (Mice): 1 dead

Compound: OCC1CC(O)C(O)C(c2ccc(Cl)c(Cc3ccc(O[C@H]4CCOC4)cc3)c2)O1 (stereo partly drawn) [drawing 297]
- Behaviors after administration with the compound to be tested (deaths) (Mice): 2 dead

Compound: CCc1ccc(Cc2c(Cl)ccc3c2COC32OC(CO)CC(O)C2O)cc1 (stereo not drawn) [drawing 298]
- Behaviors after administration with the compound to be tested (deaths) (Mice): 5 dead

Compound: CCc1ccc(Cc2c(Cl)ccc3c2COC32OC(C)C(O)C(O)C2O)cc1 (stereo not drawn) [drawing 299]
- Behaviors after administration with the compound to be tested (deaths) (Mice): 3 dead

Compound: CCOc1ccc(Cc2cc(C3SC(CO)C(O)CC3O)c(OC)cc2C)cc1 (stereo not drawn) [drawing 300]
- Behaviors after administration with the compound to be tested (deaths) (Mice): 0 dead

Compound: CCOc1ccc(Cc2cc(C3SC(CO)C(O)CC3O)c(OC)cc2C)cc1 (stereo not drawn) [drawing 301]
- Behaviors after administration with the compound to be tested (deaths) (Mice): 3 dead

Compound: CCOc1ccc(Cc2cc(C3SC(C)C(O)C(O)C3O)c(OC)cc2C)cc1 (stereo not drawn) [drawing 302]
- Behaviors after administration with the compound to be tested (deaths) (Mice): 4 dead

Compound: CCOc1ccc(Cc2cc([C@]34C[C@@H](O)[C@H](O)[C@](CO)(CO3)O4)ccc2Cl)cc1 [drawing 303]
- Behaviors after administration with the compound to be tested (deaths) (Mice): 2 dead

Compound: CCOc1ccc(Cc2cc([C@]34OC[C@](CO)(O3)[C@@H](O)C[C@H]4O)ccc2Cl)cc1 [drawing 304]
- Behaviors after administration with the compound to be tested (deaths) (Mice): 3 dead

Compound: Cc1ccc(C2OC(C)C(O)CC2O)cc1Cc1ccc(-c2ccc(F)cc2)s1 (stereo not drawn) [drawing 305]
- Behaviors after administration with the compound to be tested (deaths) (Mice): 0 dead

Compound: OCC1CCC(O)C(c2ccc(Cl)c(Cc3ccc(O[C@H]4CCOC4)cc3)c2)O1 (stereo partly drawn) [drawing 306]
- Behaviors after administration with the compound to be tested (deaths) (Mice): 2 dead

Compound: CCOc1ccc(Cc2cc(C3CCC(O)C(CO)S3)c(OC)cc2C)cc1 (stereo not drawn) [drawing 307]
- Behaviors after administration with the compound to be tested (deaths) (Mice): 0 dead

Compound: COc1ccc(Cc2cc(C3OC(C)C(O)C(O)C3O)ccc2Cl)cc1 (stereo not drawn) [drawing 308]
- IC50 (hSGLT1): 86 nM
- IC50 (hSGLT2): 3.3 nM
- Seletivity IC50 (hSGLT1)/IC50 (hSGLT2) (hSGLT2): 26

Compound: CCOc1ccc(Cc2cc(C3OC(C)C(O)C(O)C3O)ccc2Cl)cc1 (stereo not drawn) [drawing 309]
- IC50 (hSGLT1): 251 nM
- IC50 (hSGLT2): 0.67 nM
- Seletivity IC50 (hSGLT1)/IC50 (hSGLT2) (hSGLT2): 374

- IC50 (hSGLT1): 187 nM
- IC50 (hSGLT2): 7.8 nM
- Seletivity IC50 (hSGLT1)/IC50 (hSGLT2) (hSGLT2): 24
Compound: CCOc1ccc(Cc2cc(C3OC(C)C(O)C(O)C3O)ccc2C)cc1 (stereo not drawn) [drawing 310]
